Test results reported in EP1238058B1, “USE OF COLOSTRININ, C[…] AND ANALOGS THEREOF TO PROMOTE NEURAL CELL DIFFERENTIATION” (THE UNIVERSITY OF TEXAS SYSTEM, priority 1999, dated 2001).

Test system: medullary pheochromocytoma (PC 12) cells
Assay: PC12 cell differentiation (morphology) assay
Type: cell-based
Conditions: TPA 10 ng per ml, negative control
Method: Cells: PC12 cell line derived from medullary pheochromocytoma cells were used to undertake studies described bellow. PC 12 cells were obtained from the American Type Culture Collection and maintained in RPMI-1640 supplemented with 10% fetal bovine serum (HYCLONE Inc), penicillin (100 U/ml) and streptomycin (100 µg/ml).
Methods: To evaluate the effect of colostrum, colostrinin and its component peptides on cell differentiation 3 x 10^4 logarithmically replicating (70% confluence) PC 12 cells were seeded in 24 x well plates and cells were allowed to adhere and grow for 24 hours. Serum containing media were aspirated and replaced for serum-free RPMI containing appropriate amount of antibiotics. In four parallel, increasing concentrations (0.1, 1, 10 and 100 µg per ml) of colostrum, colostrinin and its component peptides were added directly into the media and incubated at 37°C. As a positive control, nerve growth factor (NGF) 7S (Gibco-BRL) was used at 100 ng per ml concentration (Chao et al., Cell, 68, 995-997 (1992); and Marshall et al., Cell, 80, 179-185 (1995)). Phorbol 12-myristate 13-acetate (TPA: 10 ng per ml) was used as a negative control. Eight hours later the media were changed and RPMI-1640 was added containing 1% or 10% fetal bovine serum. The cultures were microscopically investigated 2nd, 4th and 6th days after treatment. […]

## Phorbol 12-myristate 13-acetate [TPA]
  background level of differentiation: less than 0.01%
